Survival time data for eleven compounds are collected here from ChEMBL document CHEMBL1145233, “Design, synthesis and evaluation of 5-substituted amino-2,4-diamino-8-chloropyrimido-[4,5-b]quinolines as novel antimalarials” (2005).

Where only a bound is given, the exact number is not on record here.

Holding throughout (format): functional
In test [1] the test system is Mus musculus. In words: In vivo antimalarial activity of compound against Plasmodium berghei in mice (Mus musculus) expressed as mean survival time at 20 mg/kg.
The test system of test [2] is Mus musculus. In words: In vivo antimalarial activity of compound against Plasmodium berghei in mice (Mus musculus) expressed as mean survival time at 160 mg/kg.
Test [3] concerns Mus musculus. As to the kind of experiment: In vivo antimalarial activity of compound against Plasmodium berghei in mice (Mus musculus) expressed as mean survival time at 40 mg/kg.
The test system of test [4] is Mus musculus. As to the kind of experiment: In vivo antimalarial activity of compound against Plasmodium berghei in mice (Mus musculus) expressed as mean survival time at 80 mg/kg.

Turning to `Nc1nc(N)c2c(Nc3ccc(O)c(CN4CCCC4)c3)c3ccc(Cl)cc3nc2n1`, the Survival time in test [1] came out at 15 days; in test [2] it was 26 days; in test [3], 20 days; in test [4], 25 days.
`CCN(CC)CCCC(C)Nc1ccnc2cc(Cl)ccc12` (stereo unspecified) [CHLOROQUINE] came in with a Survival time in test [1] of 15 days.
`CCN(COOC(C)(C)C)c1c2ccc(Cl)cc2nc2nc(N)nc(N)c12`: the Survival time in test [1] was determined as 13 days; in test [2] it was 15 days; in test [3], 12 days; in test [4], 14 days.
`CCN(CC)c1cc(Nc2c3ccc(Cl)cc3nc3nc(N)nc(N)c23)ccc1O`: the Survival time in test [1] was 12 days; in test [2], 14 days; in test [3], 13 days; in test [4], 15 days.
Turning to `Nc1nc(N)c2c(Nc3cc(CN4CCCC4)c(O)c(CN4CCCC4)c3)c3ccc(Cl)cc3nc2n1`, the Survival time in test [1], in test [2], in test [3] and in test [4] was over 60 days each time.
In the case of `Nc1nc(N)c2c(Nc3ccc(S(N)(=O)=O)cc3)c3ccc(Cl)cc3nc2n1`, the Survival time stood at 12 days in test [1], 14 days in test [2], 13 days in test [3] and 15 days in test [4].
On the same counts, the results for `CN(COOC(C)(C)C)c1c2ccc(Cl)cc2nc2nc(N)nc(N)c12` are 28 days, 14 days, 30 days and 20 days.
The matching figures for `Nc1nc(N)c2c(Nc3ccc(S(=O)(=O)Nc4ccccn4)cc3)c3ccc(Cl)cc3nc2n1`: 11 days, 13 days, 14 days and 15 days.
On the same counts, the results for `Nc1nc(N)c2c(N)c3ccc(Cl)cc3nc2n1` are 15 days, 20 days, 16 days and 18 days.
For the compound `COc1ncnc(NS(=O)(=O)c2ccc(Nc3c4ccc(Cl)cc4nc4nc(N)nc(N)c34)cc2)c1OC`, the Survival time in test [1], in test [2], in test [3] and in test [4] was over 60 days in each case.
For `CCN(CC)c1cc(Nc2c3ccc(Cl)cc3nc3nc(N)nc(N)c23)cc(N(CC)CC)c1O`, the Survival time in test [1], in test [2], in test [3] and in test [4] was over 60 days each time.
